Data on two molecules can be found in article PMC4802607, “Crystal structure and biochemical characterization of the recombinant ThBgl, a GH1 β-glucosidase overexpressed in Trichoderma harzianum under biomass degradation conditions” (Biotechnology for Biofuels, 2016).

In one data set the target is T1, rThBgl (Trichoderma harzianum, UniProt A0A127SA86).
T1 construct: gene bgl; full-length GH1 beta-glucosidase, bgl gene 1398 bp, pET28a, E. coli Rosetta; N-terminal His6-tag cut with thrombin for assays
Put plainly: glucose tolerance of beta-glucosidase activity, […] glucose, triplicate. The class given is biochemical. The settings on record: read-out: % activity at 300 mM.

Substrate in the data set “purified protein”: O=[N+]([O-])c1ccc(O[C@@H]2O[C@H](CO)[C@@H](O)[C@H](O)[C@H]2O)cc1
The data set can be described thus: purified protein. The settings on record: 100 mM sodium phosphate pH 6.0, 40 °C, 0-10 mM substrate, 10 min.

Consider `OC[C@H]1OC(O)[C@H](O)[C@@H](O)[C@@H]1O` (some centres unmarked) [glucose], for which the activity at 300000 µM at rThBgl was 50%.

B1: rThBgl (Trichoderma harzianum) (protein)
chain: MLPKDFQWGFATAAYQIEGAIDKDGRGPSIWDTFCAIPGKIADGTSGVTACDSYNRTAEDIALLKSLGAKSYRFSISWSRIIPKGGRDDPVNQLGIDHYAQFVDDLLEAGITPFITLFHWDLPEELHQRYGGLLNRTEFPLDFENYARVMFKALPKVRNWITFNEPLCSAIPGYGSGTFAPGRQSTTEPWIVGHNLLVAHGRAVKVYRDEFKDLNDGQIGIVLNGDFTYPWDSSDPLDREAAERRLEFFTAWYADPIYLGDYPASMRKQLGDRLPEFTPEEKAFVLGSNDFYGMNHYTSNYIRHRTSPATADDTVGNVDVLFYNKEGQCIGPETESSWLRPCPAGFRDFLVWISKRYNYPKIYVTENGTSLKGENDLPKEKILEDDFRVNYYNEYIRAMFTAATLDGVNVKGYFAWSLMDNFEWADGYVTRFGVTYVDYENGQQRFPKKSAKSLKPLFDELIAKE
The term Km denotes the concentration of substrate that gives half-maximal velocity. Consider B1, for which the Michaelis-Menten constant (Km) in “purified protein” worked out at 970 µM.
